Source: patent publication US11679168B2, “Caspase-3-triggered molecular self-assembling PET probes and uses thereof” (The Board of Trustees of the Leland Stanford Junior …, priority 2018, dated 2023)

Columns and labels:
[1] = Stability of [18F]-C-SNAT4 in human serum (HPLC); format: in vitro ADME; conditions: 37° C., over 2 h incubation
Experimental: FIG. 10 illustrates serum stability of [^18F]-C-SNAT4 in human serum. [^18F]-C-SNAT4 was incubated in serum at 37° C. and analyzed by HPLC.
At 24 h post treatment, mixture tracer of [^19F]-C-SNAT4 was injected with [^18F]-C-SNAT4 (mixture ratio at 1:200) through the tail vein for PET imaging (FIG. 24A-24C). For treated animal, tumor uptake of mixture tracer [^18F]/[^19F]-C-SNAT4 and [^18F]-C-SNAT4 were 2.9±0.3% ID/cc and 1.7±0.1% ID/cc, respectively at 85 min post injection. There was 1.7-fold increase of radioactivity in the mixture-treated mice. Overall, the uptake of [^18F]-C-SNAT4 was increased both in radiation and drug-treated tumors. In contrast, the tumor uptake of [^18F]/[^19F]-C-SNAT4 (ratio at 1:200) and [^18F]/[^19F]-C-SNAT4 (ratio at 1:80) in untreated tumor was 0.5±0.2% ID/cc and 0.3±0.2% ID/cc, respectively at 85 min after injection (FIG. 25A-25C), followed by a rapid signal decay back to baseline within a few minutes. There were no changes compared to the uptake of [^18F]-C-SNAT4 (0.4±0.1% ID/cc). […] The sample was centrifuged at 13,400 g for 10 min and […] of the resultant supernatant was diluted with […] of water and analyzed on HPLC. % intact tracer was calculated as %=(peak area for tracer/total peak area on the HPLC chromatogram)×100.

H1299 cells = test: Radiotracer uptake in H1299 cells; format: cell-based, human
Experimental: Temporal changes in cell-associated radioactivity in drug-treated cells or vehicle cells were measured with [18F]-C-SNAT4. Data are means±SD (n=3 per group). *, P<0.05; **, P<0.01; ***, P<0.005; *****, P<0.0001.
Radiotracer uptake in cells: H460 and H1299 cells (2×10^5) were plated in 6-well cell culture plates over night before [^18F]-C-SNAT4 uptake analysis. […] After 24 h treatment, fresh, prewarmed RPMI Medium 1640 containing 1.48 MBq (40 μCi) [^18F]-C-SNAT4 was added to individual wells (1 ml/well; 13.3 pmol). At post 10, 30, 60 min, medium was removed, cells were lifted by trypsinization, and washed three-times with cold PBS. Radioactivity contained in cell pellets was measured using a gamma counter, with counts normalized to total protein concentration as determined by cell digestion using RIPA buffer followed by protein quantitation by the Bradford method. The final radiotracer [^18F]-C-SNAT4 uptake concentration was expressed as μM of % uptake/mg protein. Results were normalized to a vehicle control (PBS for [^18F]-C-SNAT4 experiments at different time-points) which was washed.

H1299 tumor = test: PET/CT imaging of H1299 tumor-bearing mice; format: in vivo; conditions: for radioactivity retention in tumor: 85 min post-injection
Experimental: FIGS. 4A and 4D illustrate representative 55- to 60-min axial and sagittal fused PET/CT images. Nude mice received approximately 200 μCi of [18F]-C-SNAT4 via tail vein injection, with PET/CT images acquired at 55 to 60 min after injection. Arrowheads indicate the tumor, identified from the CT images. H460 and H1299 tumor bearing mice were naïve, or 24 h following last dose of cisplatin treatment (Low dose: 3 mg/kg every other day for three times; high dose: 9 mg/kg every other day for three times).
Animal model and probe administration: For subcutaneous tumor models, H460 or H1299 (2×10^6 cells in 100 μl of PBS) were injection subcutaneously on the back of female nu/nu nude mice (aged 6 to 8 weeks; Charles River Laboratories). Tumor dimensions were measured periodically using a caliper (by the same researcher), with tumor volumes calculated by the following equation: volume=a×b×c/2, where a, b, and c represent three orthogonal axis of the tumor. Treatment-response analysis was performed 24 h after drug treatment. For all other experiments, animals were culled 26 h after therapy and tissues excised for analysis. For chemotherapy mouse model, tumors were grown to about 150 mm^3, and then treatment that consisted of cisplatin (Sigma-Aldrich; Low dose: 3 mg/kg; high dose: 9 mg/kg) or saline was initiated through intravenous administration, every other day for three times. Total mouse body weight and tumor size were measured every other day. Treat or left untreated. For radiotherapy mouse model, treatment consisted of two fractions of 5 Gy or 2 Gy dose of radiation therapy delivered with a single 225 kV beam using the Kimtron IC 225 irradiator (Kimtron Medical, CT, USA).
Small-animal PET/CT imaging and analysis: PET/CT imaging was carried out on a docked Siemens Inveon PET/CT scanner (matrix size, 128×128×159; CT attenuation-corrected; non-scatter corrected) (Siemens Medical Solutions USA) following a bolus intravenous injection of approximately 200 μCi of [^18F]-C-SNAT4 into tumor-bearing mice (n=56, 3-4 mice per group). Dynamic scans were acquired in list mode format over 90 min, and sorted into 22 times of frames, 0.5-mm sinogram bins for image reconstruction (4×15 s, 4×60 s, 11×300 s, 3×600 s). Mice were anesthetized with 2% isoflurane near the center of the FOV to ensure the highest image resolution and sensitivity. Iterative reconstruction was performed using 3D ordered-subsets expectation maximization (3D-OSEM) followed by fast maximum a posteriori (fast MAP) with the following parameters: MAP OSEM iterations, 2; MAP subsets, 16; MAP iterations, 18. Siemens Inveon Research Workplace software v.4.0 was used for visualization of radiotracer uptake in the tumor, to define the three-dimensional (3D) volumes of interest (VOI) and for 3D-visualisation to create volume rendering technique (VRT) images. The relative tumor or organ radioactivity concentrations were from mean pixel values within the multiple ROI volumes. The radioactivity concentration within organs was obtained from mean pixel values with in the VOI and converted to counts per milliliter per min and then divided by the injected dose (ID) to obtain an imaging VOI-derived percentage of the injected radioactive dose per cubic centimeter of tissue (% ID/cc).

SMILES: CCSSCC(NC(=O)C(CC(=O)O)NC(=O)C(NC(=O)C(CCC(=O)O)NC(=O)C(CC(=O)O)NC(C)=O)C(C)C)C(=O)NCC(=O)NC(Cc1cn(CCOCCOCCOCC[18F])nn1)C(=O)NCc1ccc(C(=O)NCCCOc2cnc(C#N)nc2)cc1 (stereo not drawn) [[^18F]-C-SNAT4]
- percentage of [18F]-C-SNAT4 remained [1]: 77.5%
- difference in uptake, drug-treated versus untreated (H1299 cells; H1299, high dose, 60 min): no difference
- cell uptake (H1299 cells; cisplatin high dose (13.5 μM, 24 h) treated H1299, 30 min post incubation): 4.0±0.3 % radioactivity/mg protein
- cell uptake (H1299 cells; cisplatin low dose (4.5 μM, 24 h) treated H1299, 60 min): 0.3±0.1 % uptake/mg protein
- cell uptake (H1299 cells; control group H1299 (high dose experiment), 30 min post incubation): 2.5±0.6 % radioactivity/mg protein
- cell uptake (H1299 cells; naïve H1299 (low dose experiment), 60 min): 0.2±0.1 % uptake/mg protein
- AUC of time activity curve (H1299 tumor; H1299, high doses cisplatin): 64.2±27.8 % ID min/cc
- radioactivity retention in tumor (H1299 tumor; H1299, high doses cisplatin): 0.5±0.3 % ID/cc
- AUC of time activity curve (H1299 tumor; H1299, low doses cisplatin): 66.0±6.8 % ID min/cc
- radioactivity retention in tumor (H1299 tumor; H1299, low doses cisplatin): 0.4±0.2 % ID/cc
- AUC of time activity curve (H1299 tumor; H1299, saline): 41.2±25.4 % ID min/cc
- radioactivity retention in tumor (H1299 tumor; H1299, saline): 0.4±0.1 % ID/cc
